{"source": "patent US20110262508A1", "about": "“ANTIMICROBIAL COMPOSITIONS, FORMULATIONS AND USES THEREOF” (priority 2007, published 2011)", "key": {"[1]": {"tested_on": "A. baumannii ATCC 19606, Acinetobacter spp. ATCC 17903, Acinetobacter spp. ATCC 19004, E. coli BL21, S. aureus, S. typhimurium AroA, P. aeruginosa, P. …", "assay": "Antibacterial spectrum over the serial dilution panel (Table 6)", "type": "cell-based", "conditions": "summary of Table 6", "experimental": "Synthetic peptides were tested for their ability to inhibit bacterial growth in liquid culture. The peptides were added at a concentration of between about 5 μM and about 10 μM to individual wells of 96-deep-well dishes that contained liquid growth media freshly inoculated with one of the following bacteria: A. baumannii ATCC Accession No. 19606, Acinetobacter spp. ATCC 17903, Acinetobacter spp. ATCC 19004, Escherichia coli strain BL21, S. aureus, S. typhimurium strain AroA, P. aeruginosa or P. pneumotropica. After 5-6 hours of shaking at 37° C., growth was measured as absorbance at 595 nm. As a control, cultures were grown in the presence of 0.1% acetonitrile (i.e., the concentration present in 10 μM peptide)."}, "A. baumannii": {"tested_on": "A. baumannii", "type": "cell-based", "from_the_text": "Broth dilution methods are e.g., described by Lorian (2007) In: Antibiotics in Laboratory Medicine, Fifth Edition; and In: Clinical and Laboratory Standards Institute, CLSI (formerly NCCLS), In: Methods for Dilution Antimicrobial Susceptibility Tests for Bacteria that Grow Aerobically—Approved Standard—Seventh Edition, CLSI document M7-A7, Villanova, Pa. (NCCLS; January 2006; Vol. 26 No. 2); and In: Clinical and Laboratory Standards Institute, CLSI (formerly NCCLS), Performance Standards for Antimicrobial Susceptibility Testing, Seventeenth Informational Supplement, M100-S17, Vol 27 No. 1 January 2007, all of which are incorporated herein by reference.\nThe present inventors used such methods to quantitate activity in vitro of antimicrobial peptides of the invention against bacterial isolates, including laboratory strains and 50 clinical isolates of A. baumannii, and S. aureus ATCC Accession No. 2992. Briefly, small volumes of broth are dispensed in sterile, plastic microtiter trays, and 100 μl of serially-diluted antimicrobial peptide (0.1-64 μg) and 100 μl test organism (approximately 1×10^5 C.F.U.), are added. Following aerobic incubation overnight at 35±2° C. Control samples lacked peptide (Growth control), or lacked peptide and bacteria (Sterility control). The trays were examined visually and the minimal inhibitory concentration (MIC) of peptide required to inhibit bacterial growth were determined. The minimum bactericidal concentration (MBC) was estimated by sub-culturing the wells for which no bacterial growth was visible to the naked eye, to thereby determine a concentration of antimicrobial that reduces the original inoculum by at least about 99.9%."}}, "note": "Peptide text beside a SMILES is read from it.", "data": [{"compound": "CC[C@H](C)[C@H](NC(=O)[C@H](CCCCN)NC(=O)[C@H](CO)NC(=O)[C@H](CC(C)C)NC(=O)[C@@H](N)CC(C)C)C(=O)N[C@@H](CCCNC(=N)N)C(=O)N[C@@H](C)C(=O)N[C@@H](CC(C)C)C(=O)N[C@@H](CCCNC(=N)N)C(=O)N[C@@H](CCCNC(=N)N)C(=O)N[C@@H](CCCNC(=N)N)C(=O)N[C@@H](CCCNC(=N)N)C(=O)N[C@@H](Cc1ccccc1)C(=O)NCC(=O)N[C@@H](CCC(N)=O)C(=O)N[C@@H](CS)C(=O)N[C@@H](CC(=O)O)C(=O)N[C@@H](CCCCN)C(=O)N[C@@H](CCCNC(=N)N)C(=O)N[C@H](C(=O)N[C@@H](CO)C(=O)N[C@@H](Cc1ccc(O)cc1)C(=O)N[C@@H](CCCCN)C(=O)O)[C@@H](C)CC", "note": "[Ac15] (H-LLSKIRALRRRRFGQCDKRISYK-OH; N-terminus and C-terminus assumed)", "values": [{"measurement": "selectively inhibited growth of A. baumannii ATCC Accession No. 19606, Acinetobacter spp. ATCC 17903 and Acinetobacter spp. ATCC 19004", "setting": "[1]", "value": "selectively inhibited growth"}]}, {"compound": "CC[C@H](C)[C@H](NC(=O)[C@H](CCC(N)=O)NC(=O)[C@H](CCCNC(=N)N)NC(=O)[C@H](CS)NC(=O)[C@@H](NC(=O)[C@H](CCCNC(=N)N)NC(=O)[C@H](CCCNC(=N)N)NC(=O)[C@H](CC(C)C)NC(=O)[C@H](CC(=O)O)NC(=O)[C@H](CCC(=O)O)NC(=O)[C@H](CCCNC(=N)N)NC(=O)[C@H](CC(C)C)NC(=O)[C@H](CCCNC(=N)N)NC(=O)CNC(=O)[C@H](CO)NC(=O)[C@H](Cc1ccccc1)NC(=O)[C@@H](NC(=O)[C@H](CC(C)C)NC(=O)[C@@H](NC(=O)CN)C(C)C)[C@@H](C)O)[C@@H](C)CC)C(=O)N[C@@H](CO)C(=O)N[C@@H](C)C(=O)N[C@@H](Cc1ccc(O)cc1)C(=O)O", "note": "[Ac339] (H-GVLTFSGRLREDLRRICRQISAY-OH; N-terminus and C-terminus assumed)", "values": [{"measurement": "MBC", "setting": "A. baumannii", "value": 40, "unit": "µM"}, {"measurement": "MIC", "setting": "A. baumannii", "value": 20, "unit": "µM"}, {"measurement": "MIC (μM) for non-amidated Peptide", "setting": "A. baumannii", "value": 20, "unit": "µM"}]}, {"compound": "CC(C)C[C@H](NC(=O)[C@H](Cc1ccccc1)NC(=O)[C@H](CCCNC(=N)N)NC(=O)[C@H](CCCNC(=N)N)NC(=O)[C@H](CCCNC(=N)N)NC(=O)[C@H](CO)NC(=O)[C@H](CS)NC(=O)[C@@H](N)Cc1c[nH]c2ccccc12)C(=O)N[C@@H](C)C(=O)N[C@@H](CCCNC(=N)N)C(=O)N[C@@H](CS)C(=O)N[C@@H](Cc1c[nH]c2ccccc12)C(=O)N[C@@H](CCCNC(=N)N)C(=O)O", "note": "[Ac496] (H-WCSRRRFLARCWR-OH; N-terminus and C-terminus assumed)", "values": [{"measurement": "MBC", "setting": "A. baumannii", "value": 40, "unit": "µM"}, {"measurement": "MIC", "setting": "A. baumannii", "value": 40, "unit": "µM"}]}, {"compound": "CC[C@H](C)[C@H](NC(=O)[C@H](CCCNC(=N)N)NC(=O)[C@@H]1CCCN1C(=O)CNC(=O)[C@H](C)NC(=O)[C@H](CCSC)NC(=O)[C@H](CCCNC(=N)N)NC(=O)[C@H](CC(C)C)NC(=O)[C@H](CCCNC(=N)N)NC(=O)[C@H](CS)NC(=O)[C@H](CS)NC(=O)[C@H](C)NC(=O)[C@H](Cc1c[nH]c2ccccc12)NC(=O)CNC(=O)[C@H](CS)NC(=O)CNC(=O)[C@H](C)NC(=O)[C@H](C)NC(=O)[C@@H]1CCCN1C(=O)[C@H](Cc1ccccc1)NC(=O)[C@H](Cc1c[nH]c2ccccc12)NC(=O)CN)C(=O)NCC(=O)O", "note": "[Ac451] (H-GWFPAAGCGWACCRLRMAGPRIG-OH; N-terminus and C-terminus assumed)", "values": [{"measurement": "MIC", "setting": "A. baumannii", "value": 40, "unit": "µM"}]}, {"compound": "CC[C@H](C)[C@H](NC(=O)[C@H](Cc1c[nH]c2ccccc12)NC(=O)[C@H](CCCNC(=N)N)NC(=O)[C@@H](N)CO)C(=O)N[C@@H](CS)C(=O)N[C@@H](CO)C(=O)N[C@@H](CCSC)C(=O)N[C@@H](C)C(=O)N[C@@H](CCCNC(=N)N)C(=O)N[C@@H](CCCNC(=N)N)C(=O)N[C@@H](CO)C(=O)N[C@@H](CCCNC(=N)N)C(=O)N[C@@H](CCCNC(=N)N)C(=O)N[C@@H](CCCNC(=N)N)C(=O)N[C@@H](CCCNC(=N)N)C(=O)N1CCC[C@H]1C(=O)NCC(=O)N[C@@H](CCCNC(=N)N)C(=O)N[C@@H](CO)C(=O)N[C@H](C(=O)N[C@@H](CCCNC(=N)N)C(=O)N[C@@H](CO)C(=O)N[C@@H](Cc1c[nH]c2ccccc12)C(=O)O)[C@@H](C)O", "note": "[Ac390] (H-SRWICSMARRSRRRRPGRSTRSW-OH; N-terminus and C-terminus assumed)", "values": [{"measurement": "MBC", "setting": "A. baumannii", "value": 40, "unit": "µM"}, {"measurement": "MIC", "setting": "A. baumannii", "value": 40, "unit": "µM"}]}, {"compound": "CC(C)C[C@H](NC(=O)CNC(=O)[C@H](CS)NC(=O)[C@H](CO)NC(=O)CNC(=O)[C@H](CCCNC(=N)N)NC(=O)[C@H](CS)NC(=O)[C@H](CCCCN)NC(=O)[C@H](CO)NC(=O)[C@H](CC(C)C)NC(=O)[C@@H](NC(=O)[C@H](CC(N)=O)NC(=O)[C@H](CS)NC(=O)[C@H](C)NC(=O)[C@H](CCCNC(=N)N)NC(=O)[C@H](Cc1c[nH]c2ccccc12)NC(=O)[C@H](CCCNC(=N)N)NC(=O)[C@H](Cc1c[nH]c2ccccc12)NC(=O)CNC(=O)[C@H](C)NC(=O)CN)[C@@H](C)O)C(=O)N[C@@H](CCCNC(=N)N)C(=O)N[C@H](C(=O)O)C(C)C", "note": "[Ac379] (H-GAGWRWRACNTLSKCRGSCGLRV-OH; N-terminus and C-terminus assumed)", "values": [{"measurement": "MBC", "setting": "A. baumannii", "value": 39, "unit": "µM"}, {"measurement": "MIC", "setting": "A. baumannii", "value": 30, "unit": "µM"}]}, {"compound": "CSCC[C@H](N)C(=O)NCC(=O)N[C@@H](CCCNC(=N)N)C(=O)N[C@@H](CC(C)C)C(=O)N[C@@H](CO)C(=O)NCC(=O)N[C@H](C(=O)N[C@@H](C)C(=O)N[C@@H](Cc1c[nH]c2ccccc12)C(=O)N[C@@H](CCCNC(=N)N)C(=O)N[C@@H](CCCNC(=N)N)C(=O)N[C@@H](CC(C)C)C(=O)N[C@@H](CO)C(=O)N[C@@H](CC(C)C)C(=O)N[C@@H](CCCNC(=N)N)C(=O)N[C@@H](Cc1c[nH]cn1)C(=O)N[C@@H](CS)C(=O)N[C@@H](CCC(=O)O)C(=O)N[C@@H](CS)C(=O)NCC(=O)N[C@@H](CCCNC(=N)N)C(=O)N[C@@H](CCCNC(=N)N)C(=O)N1CCC[C@H]1C(=O)O)C(C)C", "note": "[Ac370] (H-MGRLSGVAWRRLSLRHCECGRRP-OH; N-terminus and C-terminus assumed)", "values": [{"measurement": "MBC", "setting": "A. baumannii", "value": 20, "unit": "µM"}, {"measurement": "MIC", "setting": "A. baumannii", "value": 20, "unit": "µM"}, {"measurement": "MIC (μM) for non-amidated Peptide", "setting": "A. baumannii", "value": 20, "unit": "µM"}]}, {"compound": "CC[C@H](C)[C@H](NC(=O)[C@@H]1CCCN1C(=O)[C@@H](NC(=O)[C@@H](NC(=O)[C@H](C)NC(=O)[C@H](CCCNC(=N)N)NC(=O)[C@H](CC(C)C)NC(=O)[C@@H](NC(=O)[C@H](C)NC(=O)[C@H](CCCNC(=N)N)NC(=O)[C@H](CC(C)C)NC(=O)[C@H](CCSC)NC(=O)[C@H](C)NC(=O)[C@@H](NC(=O)[C@@H]1CCCN1C(=O)[C@H](CC(C)C)NC(=O)[C@@H](N)C(C)C)C(C)C)[C@@H](C)O)[C@@H](C)O)C(C)C)C(=O)N[C@@H](CO)C(=O)N[C@@H](CCCNC(=N)N)C(=O)N[C@@H](CO)C(=O)N[C@@H](CCCNC(=N)N)C(=O)N[C@@H](CC(C)C)C(=O)N[C@@H](CCCNC(=N)N)C(=O)O", "note": "[Ac434] (H-VLPVAMLRATLRATVPISRSRLR-OH; N-terminus and C-terminus assumed)", "values": [{"measurement": "MBC", "setting": "A. baumannii", "value": 40, "unit": "µM"}, {"measurement": "MIC", "setting": "A. baumannii", "value": 40, "unit": "µM"}]}, {"compound": "CC(C)C[C@H](NC(=O)CNC(=O)[C@H](CS)NC(=O)[C@H](CO)NC(=O)CNC(=O)[C@H](CCCNC(=N)N)NC(=O)[C@H](CS)NC(=O)[C@H](CCCCN)NC(=O)[C@H](CO)NC(=O)[C@H](CC(C)C)NC(=O)[C@@H](NC(=O)[C@H](CC(N)=O)NC(=O)[C@H](CS)NC(=O)[C@H](C)NC(=O)[C@H](CCCNC(=N)N)NC(=O)[C@@H](N)Cc1c[nH]c2ccccc12)[C@@H](C)O)C(=O)N[C@@H](CCCNC(=N)N)C(=O)N[C@H](C(=O)N[C@@H](Cc1c[nH]c2ccccc12)C(=O)N[C@@H](C)C(=O)NCC(=O)N[C@@H](CCCNC(=N)N)C(=O)NCC(=O)O)C(C)C", "note": "[Ac380] (H-WRACNTLSKCRGSCGLRVWAGRG-OH; N-terminus and C-terminus assumed)", "values": [{"measurement": "MIC", "setting": "A. baumannii", "value": 40, "unit": "µM"}]}, {"compound": "CC[C@H](C)[C@H](NC(=O)[C@H](CCCNC(=N)N)NC(=O)[C@H](CCCNC(=N)N)NC(=O)[C@H](CC(C)C)NC(=O)[C@H](CC(=O)O)NC(=O)[C@H](CCC(=O)O)NC(=O)[C@H](CCCNC(=N)N)NC(=O)[C@H](CC(C)C)NC(=O)[C@H](CCCNC(=N)N)NC(=O)CNC(=O)[C@H](CO)NC(=O)[C@H](Cc1ccccc1)NC(=O)[C@@H](NC(=O)[C@H](CC(C)C)NC(=O)[C@@H](NC(=O)CNC(=O)[C@H](Cc1ccccc1)NC(=O)[C@@H](NC(=O)[C@@H](NC(=O)CNC(=O)CN)C(C)C)C(C)C)C(C)C)[C@@H](C)O)C(=O)N[C@@H](CS)C(=O)N[C@@H](CCCNC(=N)N)C(=O)O", "note": "[Ac338] (H-GGVVFGVLTFSGRLREDLRRICR-OH; N-terminus and C-terminus assumed)", "values": [{"measurement": "MBC", "setting": "A. baumannii", "value": 30, "unit": "µM"}, {"measurement": "MIC", "setting": "A. baumannii", "value": 30, "unit": "µM"}]}]}
